Source: ChEMBL document CHEMBL1124410, “New antitumor monoclonal antibody-vinca conjugates LY203725 and related compounds: design, preparation, and representative in vivo activity” (J Med Chem, 1989)
Values after ≈ are worked out from the molar mass of the structure shown.

Experiments:
CCRF-CEM = assay: In vitro inhibition of CCRF-CEM human leukemic lymphoblasts proliferation was determined; assay type: functional, cell-based
[1] = In vitro inhibition of P3UCLA human adenocarcinoma cell proliferation was determined in MTT proliferation assay; assay type: functional

Row | SMILES | IC50 (CCRF-CEM) [µg/mL] | IC50 [1] [ng/mL]
1 | CC[C@]1(O)CC2CN(CCc3c([nH]c4ccccc34)[C@@](C(=O)OC)(c3cc4c(cc3OC)N(C)C3C45CCN4CC=C[C@](CC)(C45)C(OC(C)=O)[C@]3(O)C(=O)OC)C2)C1 (stereo partly specified) | 0.1 (≈ 0.123 µM) | –
2 | CC[C@]1(O)CC2CN(CCc3c([nH]c4ccccc34)[C@@](C(=O)OC)(c3cc4c(cc3OC)N(C)C3C45CCN4CC=C[C@](CC)(C45)C(OC(=O)CCC(=O)O)[C@]3(O)C(=O)OC)C2)C1 (stereo partly specified) | 1.4 (≈ 1.61 µM) | 3 (≈ 0.00345 µM)
3 | CC[C@]1(O)CC2CN(CCc3c([nH]c4ccccc34)[C@@](C(=O)OC)(c3cc4c(cc3OC)N(C)C3C45CCN4CC=C[C@](CC)(C45)C(O)[C@]3(O)C(=O)OC)C2)C1 (stereo partly specified) | – | 0.3 (≈ 0.00039 µM)
4 | CC[C@]1(O)C[C@@H]2CN(CCc3c([nH]c4ccccc34)[C@@](C(=O)OC)(c3cc4c(cc3OC)N(C)[C@H]3[C@@](O)(C(=O)NN)[C@H](O)[C@]5(CC)C=CCN6CC[C@]43[C@@H]65)C2)C1 [DESACETYLVINBLASTINEHYDRAZIDE] | 0.03 (≈ 0.039 µM) | < 0.3
